Data reported in ChEMBL document CHEMBL1154568, “Sulcatin, a novel antiproliferative N-methylpyridinium alkaloid from the ascidian Microcosmus vulgaris” (J Nat Prod, 2000).
Active and inactive are the calls of the source. The calls are words filed in the database; no cut-off is given here.

What was measured:
J774 = assay: Antiproliferative activity against mouse J774 cells after 96 hrs by MTT assay; assay type: cell-based; conditions: j774, 96 h
WEHI = assay: Antiproliferative activity against mouse WEHI 164 cells after 96 hrs by MTT assay; assay type: functional, cell-based

## Cc1cc[n+](C)cc1CCC(=O)[O-] [SULCATIN]
J774
  Activity: Active
WEHI
  Activity: Active
